In patent EP0479665A2, “1,4-Dihydropyridine derivatives, method for preparing the same and use thereof” (TEIKOKU CHEMICAL INDUSTRIES CO., LTD., priority 1990, dated 1992):
pIC50: −log10 of the molar value. Where a name gives a salt, the structure may show the parent alone. Read-outs that look alike come from different tables or passages of the source. Marks after values point to notes of the source that are not given here.

Experiments:
[1] = tested on: spontaneously hypertensive rats; assay: Antihypertensive action, tail-cuff method, single oral dose; format: in vivo; details: difference in blood pressure before and after administration; 10 mg/kg oral; an hour after the administration; two rats
Procedure: Measurement was conducted an hour after the administration. […] The antihypertensive action of each of […] nicardipine was also measured for comparison.

thoracic aorta = assay: Calcium antagonism: relaxation of thoracic aorta helical strips contracted with hyperpotassium solution; format: cell-based, rabbit; details: Oryctolagus cuniculus; concentration for 50 % relaxation; hyperpotassium solution (50 mM); relaxation with 10^-4 M papaverine defined as 100 %; read-out: Measured Value (IC50)
Procedure: A thoracic aorta was removed from a rabbit to obtain a helical strips (width: 3 mm; length: 30 mm). This strip was suspended under a load of 0.5 g in a Magnus tube filled with Krebs-Henseleit solution. Subsequently, the Krebs-Henseleit solution was replaced with hyperpotassium solution (50 mM) to contract the strip. The strip was then left to stand until the contraction was stabilized. Thereafter, the compounds obtained in Examples 18, 19 and 20 and dissolved in ethanol-distilled water were added to the strip.
The concentration (IC50) of each compound required for obtaining relaxation of 50 % was measured. It is to be noted that the relaxation of a strip treated with 10-^4M papaverine was defined to 100 %.

in vivo = details: oral, after a fast, 4-week old mouse, read-out: Toxicity (LD50)
Procedure: After a fast, a ddy-mouse (4-week old) was orally given a solution obtained by dissolving and/or suspending the compound in each Example 18, 19 and 20 in dimethylsulfoxide (DMSO) or carboxymethylcellulose (CMC). The value of LD50 was calculated from the mortality.

[2] = tested on: spontaneously hypertensive rats; assay: Antihypertensive action regarding administration amount, tail-cuff method; format: in vivo; details: for ED (40 mmHg decrease): Rattus norvegicus, read-out: ED-40 mmHg; for T1/2(dose): time for recovery to 50 % of maximal effect (index of persistence)
Procedure: Ten spontaneously hypertensive rats (10 - 20 week old) were used for this test. Blood pressure was measured in accordance with tail-cuff method by employing a blood pressure gauge for small animals UR-1000 (manufactured by Ueda Works, Ltd., Japan). […] The amount of each compound required for lowering the blood pressure of 40 mmHg decrease in blood pressure was calculated from the relationship between the administration amount and the blood pressure after adiministration (lowermost blood pressure). This amount was defined as ED-40 mmHg for serving as an index of antihypertensive action. Tz was shown as the time required for recovery to 50 % of maximal […]. This value was used for an index of persistence.

[3] = oral amount for a 40 mmHg decrease in blood pressure, suspended in 0.5 % carboxymethylcellulose, ten rats

For “1,4-dihydro-2,6-dimethyl-4-(3'-nitrophenyl)-3,5-pyridinedicarboxylic acid methyl (1-piperidinylmethylcyclohexyl)methyl ester hydrochloride [Example 2]”, the “Antihypertensive Action” value [1] was -89 mmHg.

For `COC(=O)C1=C(C)NC(C)=C(C(=O)OCC2(CN(C)Cc3ccccc3)CCCCC2)C1c1cccc([N+](=O)[O-])c1.Cl` (racemic) [Example 1, 1,4-dihydro-2,6-dimethyl-4-(3'-nitrophenyl)-3,5-pyridinedicarboxylic acid 1-(N-benzyl-N-methylaminomethyl)cyclohexylmethyl methyl ester hydrochloride], the “Antihypertensive Action” value [1] was -131 mmHg.

In the case of `COC(=O)C1=C(C)NC(C)=C(C(=O)OCC2(CN3CCN(c4ccccc4)CC3)CCCCC2)C1c1cccc([N+](=O)[O-])c1` (racemic) [Example 3, 1,4-dihydro-2,6-dimethyl-4-(3'-nitrophenyl)-3,5-pyridinedicarboxylic acid methyl 1-(4-phenylpiperazinylmethyl)cyclohexylmethyl ester dihydrochloride.1/2 acetone adduct], the “Antihypertensive Action” value [1] was -109 mmHg.

In the case of `CC1=C(C(=O)OCC2(CN(C)C)CCCCC2)C(c2cccc([N+](=O)[O-])c2)C(C(=O)OC(C)C)=C(C)N1` (racemic) [Example 5], the “Antihypertensive Action” value [1] was -68 mmHg.

With `CCOC(=O)C1=C(C)NC(C)=C(C(=O)OCC2(CN(C)Cc3ccccc3)CCCCC2)C1c1cccc([N+](=O)[O-])c1` (racemic) [Example 6, 1,4-dihydro-2,6-dimethyl-4-(3'-nitrophenyl)-3,5-pyridinedicarboxylic acid 1-(N-benzyl-N-methylaminomethyl)cyclohexylmethyl ethyl ester] the “Antihypertensive Action” value [1] was -110 mmHg.

In the case of `CCOC(=O)C1=C(C)NC(C)=C(C(=O)OCC2(CN(C)C)CCCCC2)C1c1cccc([N+](=O)[O-])c1` (racemic) [Example 7], the “Antihypertensive Action” value [1] was -61 mmHg.

For `COC(=O)C1=C(C)NC(C)=C(C(=O)OCC2(CN(C)Cc3ccccc3)CCCCC2)C1c1cc([N+](=O)[O-])ccc1F` (racemic) [Example 8], the “Antihypertensive Action” value [1] was -140 mmHg.

For `COC(=O)C1=C(C)NC(C)=C(C(=O)OCC2(CN3CCN(Cc4ccccc4)CC3)CCCCC2)C1c1cccc([N+](=O)[O-])c1` (racemic) [Example 10], the “Antihypertensive Action” value [1] was -110 mmHg.

In the case of `COC(=O)C1=C(C)NC(C)=C(C(=O)OCC2(CN3CCN(C)CC3)CCCCC2)C1c1cccc([N+](=O)[O-])c1` (racemic) [Example 11], the “Antihypertensive Action” value [1] was -74 mmHg.

In the case of `COC(=O)C1=C(C)NC(C)=C(C(=O)OCC2(CN3CCOCC3)CCCCC2)C1c1cccc([N+](=O)[O-])c1` (racemic) [Example 12], the “Antihypertensive Action” value [1] was -113 mmHg.

In the case of `CCN(CC)CC1(COC(=O)C2=C(C)NC(C)=C(C(=O)OC)C2c2cccc([N+](=O)[O-])c2)CCCCC1` (racemic) [Example 13], the “Antihypertensive Action” value [1] was -108 mmHg.

In the case of `COC(=O)C1=C(C)NC(C)=C(C(=O)OCC2(CN(C)Cc3ccc(F)cc3)CCCCC2)C1c1cccc([N+](=O)[O-])c1` (racemic) [Example 15], the “Antihypertensive Action” value [1] was -114 mmHg.

With `COC(=O)C1=C(C)NC(C)=C(C(=O)OCC2(CN(C)Cc3ccccc3Cl)CCCCC2)C1c1cccc([N+](=O)[O-])c1` (racemic) [Example 16] the “Antihypertensive Action” value [1] was -120 mmHg.

For `COC(=O)C1=C(C)NC(C)=C(C(=O)OCC2(CN3CCN(C(c4ccccc4)c4ccccc4)CC3)CCCCC2)C1c1cccc([N+](=O)[O-])c1` (racemic) [Example 17], the “Antihypertensive Action” value [1] was -112 mmHg.

In the case of `COC(=O)C1=C(C)NC(C)=C(C(=O)OCC2(CN(C)C)CCCCC2)C1c1cccc([N+](=O)[O-])c1` (single isomer, unassigned) [Example 21], the “Antihypertensive Action” value [1] was -53 mmHg.

With `COC(=O)C1=C(C)NC(C)=C(C(=O)OCC2(CN(C)Cc3ccc(Cl)cc3)CCCCC2)C1c1cccc([N+](=O)[O-])c1` (single isomer, unassigned) [Example 22] the “Antihypertensive Action” value [1] was -122 mmHg.

In the case of `COC(=O)C1=C(C)NC(C)=C(C(=O)OCC2(CN3CCOCC3)CCCCC2)C1c1cccc([N+](=O)[O-])c1` (single isomer, unassigned) [Example 23], the “Antihypertensive Action” value [1] was -87 mmHg.

For `COC(=O)C1=C(C)NC(C)=C(C(=O)OCC2(CN3CCN(C)CC3)CCCCC2)C1c1cccc([N+](=O)[O-])c1` (single isomer, unassigned) [Example 24], the “Antihypertensive Action” value [1] was -79 mmHg.

With `COC(=O)C1=C(C)NC(C)=C(C(=O)OCC2(CN3CCN(Cc4ccccc4)CC3)CCCCC2)C1c1cccc([N+](=O)[O-])c1` (single isomer, unassigned) [Example 25] the “Antihypertensive Action” value [1] was -98 mmHg.

In the case of `COC(=O)C1=C(C)NC(C)=C(C(=O)OCC2(CN(C)Cc3ccc(F)cc3)CCCCC2)C1c1cccc([N+](=O)[O-])c1` (single isomer, unassigned) [Example 26], the “Antihypertensive Action” value [1] was -111 mmHg.

With `CCN(Cc1ccccc1)CC1(COC(=O)C2=C(C)NC(C)=C(C(=O)OC)C2c2cccc([N+](=O)[O-])c2)CCCCC1` (single isomer, unassigned) [Example 27] the “Antihypertensive Action” value [1] was -109 mmHg.

With `COC(=O)C1=C(C)NC(C)=C(C(=O)OCC2(CN(C)Cc3ccccc3)CCCCC2)C1c1cccc([N+](=O)[O-])c1.Cl` (single isomer, unassigned; (+)) [Example 18, (+)-1,4-dihydro-2,6-dimethyl-4-(3'-nitro-phenyl)-3,5-pyridinedicarboxylic acid 1-(N-benzyl-N-methylaminomethyl)cyclohexylmethyl methyl ester hydrochloride] the “Antihypertensive Action” value [1] was -96 mmHg, the pIC50 (thoracic aorta) was 7.00 and the LD50 (in vivo; medium DMSO) was 130 mg/kg. For the same molecule, the ED (40 mmHg decrease) [2, 3] was 0.7 mg/kg and the “T1/2(dose)” value ([2]; oral dose 3 mg/kg) was >6.0 hr(3 mg/kg)*.

With `COC(=O)C1=C(C)NC(C)=C(C(=O)OCC2(CN3CCCCC3)CCCCC2)C1c1cccc([N+](=O)[O-])c1` (single isomer, unassigned; (+)) [Example 19, (+)-1,4-dihydro-2,6-dimethyl-4-(3'-nitro-phenyl)-3,5-pyridinedicarboxylic acid methyl (1-piperidinylmethylcyclohexyl)methyl ester hydrochloride] the “Antihypertensive Action” value [1] was -75 mmHg, the pIC50 (thoracic aorta) was 8.82 and the LD50 (in vivo; medium DMSO) was 100 mg/kg. For the same molecule, the ED (40 mmHg decrease) [2, 3] was 0.5 mg/kg and the “T1/2(dose)” value ([2]; oral dose 3 mg/kg) was >6.0 hr(3 mg/kg)*.

With `COC(=O)C1=C(C)NC(C)=C(C(=O)OCC2(CN3CCN(c4ccccc4)CC3)CCCCC2)C1c1cccc([N+](=O)[O-])c1` (single isomer, unassigned; (+)) [Example 20, (+)-1,4-dihydro-2,6-dimethyl-4-(3'-nitro-phenyl)-3,5-pyridinedicarboxylic acid methyl 1-(4-phenylpiperazinylmethyl)cyclohexylmethyl ester dihydrochloride] the “Antihypertensive Action” value [1] was -129 mmHg, the pIC50 (thoracic aorta) was 6.38 and the LD50 (in vivo; medium CMC) was 290 mg/kg. For the same molecule, the ED (40 mmHg decrease) [2, 3] was 0.3 mg/kg and the “T1/2(dose)” value ([2]; oral dose 1 mg/kg) was >6.0 hr(1 mg/kg)*.

`COC(=O)C1=C(C)NC(C)=C(C(=O)OCCN2CCN(C(c3ccccc3)c3ccccc3)CC2)C1c1cccc([N+](=O)[O-])c1` (stereo not drawn) [Manidipine, reference compound] gave a pIC50 (thoracic aorta) of 7.57, an LD50 (in vivo; medium CMC) of 200 mg/kg and an ED (40 mmHg decrease) [2, 3] of 1.7 mg/kg. For the same molecule, the “T1/2(dose)” value ([2]; oral dose 3 mg/kg) was 5.0 hr(3 mg/kg)*.

In the case of `COC(=O)C1=C(C)NC(C)=C(C(=O)OCCN(C)Cc2ccccc2)C1c1cccc([N+](=O)[O-])c1` (stereo not drawn) [Nicardipine, nicardipine, reference compound], the “Antihypertensive Action” value [1] was -77 mmHg, the pIC50 (thoracic aorta) was 8.17 and the LD50 (in vivo; medium DMSO) was 190 mg/kg. For the same molecule, the ED (40 mmHg decrease) [2, 3] was 2.6 mg/kg and the “T1/2(dose)” value ([2]; oral dose 10 mg/kg) was 4.5 hr(10mg/kg)*.

With `COC(=O)C1=C(C)NC(C)=C(C(=O)OC)C1c1ccccc1[N+](=O)[O-]` [Nifedipine, nifedipine, reference compound] the “Antihypertensive Action” value [1] was -58 mmHg, the pIC50 (thoracic aorta) was 7.54 and the ED (40 mmHg decrease) ([2]; po) was 3.3 mg/kg.
